This note sets out measurements from PubChem BioAssay AID1241 (SRMLSC, 2008).

This test is described as follows: compounds inducing NF-kB luciferase expression – cell-based, SH-SY5Y, dose response (AID 1241). The following applies: SH-SY5Y NF-kB promoter luciferase reporter, fold induction.
Take `O=C(Nc1cccnc1)c1cc2c(ccc3ccccc32)o1`: the EC50 was 3.46 µM.

`Cc1ccsc1C(=O)N/N=C/c1ccc2c(c1)OCO2`: the EC50 was 1.14 µM.

As for `CCOC(=O)c1c(N)sc(C(=O)Nc2ccccc2F)c1C`, the EC50 is 1.92 µM.

`O=C(Nc1ccc(N2CCCCC2)cc1)c1ccccc1`: the EC50 is 0.978 µM.

`CC(=O)c1cccc(N/C=C\C(=O)c2ccc(C)cc2)c1`: the half-maximal effective concentration (EC50) is 0.904 µM.

For the compound `CCSc1ccc(-c2ccc(C)cc2)nn1`, the EC50 was 0.69 µM.

In the case of `CC(C)CC(=O)Nc1ccc(-c2cn3ccsc3n2)cc1`, the EC50 was 8.51 µM.

With `CCOC(=O)c1ccc2nc(NC(=O)c3cccs3)sc2c1`, the EC50 is 1.93 µM.

`O=C(O)c1cccc(N/N=C/c2ccc(-c3ccccc3)cc2)c1`: the EC50 is 1.79 µM.

Regarding `Cc1ccc2nc(NC(=O)c3cccs3)sc2c1`, the EC50 was 0.389 µM.

For `Cc1nc(N)sc1N=Nc1ccc(Br)cc1`, the EC50 is 7 µM.

As for `COc1ccc(Cn2c(C3CC3)nc3ccc(NC(=O)C4CC4)cc3c2=O)cc1`, the EC50 is 1.3 µM.

For `CCN(CC)c1ccc(/C=N/NC(=O)c2ccco2)cc1`, the EC50 was 4.28 µM.

As to `Cc1cc(C=C2C(=O)c3ccccc3C2=O)c(C)n1C`, the EC50 was 2.79 µM.

For the compound `O=[N+]([O-])c1cc(O)c2ncccc2c1`, the EC50 is 7.94 µM.

For the compound `CCC(=O)Nc1ccc2oc(-c3ccccc3Br)nc2c1`, the 50% effective concentration (EC50) is 2.64 µM.

For the compound `CSc1ccc(/C=N/Nc2cccc(C(=O)O)c2)cc1`, the EC50 is 3.43 µM.

As to `O=C(CSc1nnnn1-c1ccccc1)Nc1nsc(-c2ccccc2)n1`, the EC50 is 14.2 µM.

Consider `Cc1ccc(NC(=O)N2CCc3ccccc32)cc1C`, for which the EC50 was 0.361 µM.

In the case of `CC(=O)Nc1ccc2nc(-c3ccccc3)cn2c1`, the EC50 was 2.7 µM.

For `COc1ccc(NC(=O)c2cc3ccccn3n2)cc1`, the EC50 was 0.958 µM.

With `O=c1[nH]c(/C=C2\C=Nc3ccccc32)c(O)n1Cc1ccccc1F`, the EC50 is 2.54 µM.

In the case of `Cc1ccc(/C=N/Nc2cccc(C(=O)O)c2)s1`, the EC50 is 2.12 µM.

As for `Brc1ccccc1/C=N/Nc1ccc2ccccc2n1`, the EC50 is 5.5 µM.

Turning to `O=C(Nc1ccc(Cl)cc1Cl)C1=Cc2ccccc2OC1`, the EC50 is 8.04 µM.

For `CC(=O)Nc1cccc(-c2csc(Nc3cccc(C)n3)n2)c1`, the EC50 was 1.63 µM.

In the case of `COc1ccc(N2C(=S)NC3N2C(=S)NC3(C)c2ccccc2)cc1` (stereo unspecified), the EC50 was 8.37 µM.

As for `COc1ccccc1N1CCN(c2ccc(-c3ccccc3)nn2)CC1`, the EC50 was 0.718 µM.

Regarding `Clc1ccccc1OCc1nc(-c2ccccn2)no1`, the EC50 was 2.1 µM.

As for `Cc1cccnc1Nc1nc(-c2ccc(O)cc2)cs1`, the EC50 is 8.13 µM.

Consider `O=C(Nc1ccc2oc(-c3ccccc3F)nc2c1)c1ncn[nH]1`, for which the EC50 is 2.11 µM.

As to `O=C(Cc1ccccc1)Nc1nc2ccccc2s1`, the EC50 is 29.5 µM.

For the compound `COc1ccc(C2=Nc3cc(C)ccc3OC2)cc1`, the EC50 was 1.95 µM.

Take `COC(=O)CSc1nc2cc3c(cc2cc1C#N)OCO3`: the EC50 was 0.997 µM.

Turning to `Cc1ccc(NC(=O)COc2ccccc2[N+](=O)[O-])nc1`, the EC50 is 18.2 µM.

Take `c1ccc(CCNc2ncnc3c2cnn3-c2ccccc2)cc1`: the EC50 was 27.4 µM.

Take `O=S1(=O)N=C(Nc2nc3c(s2)CCCC3)c2ccccc21`: the concentration giving a half-maximal response (EC50) is 21.8 µM.

For `Cc1ccc(N=Cc2sc(O)c3ccccc23)cc1`, the EC50 was 1.73 µM.

Turning to `N/C(=N\OC(=O)c1ccccc1Cl)c1ccccc1`, the EC50 is 0.956 µM.

Take `Cc1cc(N/C=C/C(=O)c2cccs2)ccc1F`: the EC50 was 2.22 µM.

For `Cn1/c(=N/N=C/c2ccccn2)sc2ccccc21`, the EC50 was 6.33 µM.

`Cc1cccc(Nc2nc(-c3ccccn3)cs2)n1`: the EC50 was 1.19 µM.

Regarding `CCCOc1ccc(C(=O)Nc2ccc(Cl)cn2)cc1`, the EC50 is 1.09 µM.

`CCOC(=O)c1cnc(SCc2ccccc2)nc1N`: the EC50 was 8.92 µM.

With `c1ccc(-c2noc(-c3cccc4ccccc34)n2)cc1`, the EC50 is 15.6 µM.

For the compound `CCCCc1ccc(NC(=O)c2cnccn2)cc1`, the EC50 is 0.25 µM.
